# Results published in ChEMBL document CHEMBL3044789, “Comparing weed and crop seedling response to pre-emergence pendimethalin application in Corchorus olitorius and Abelmoschus esculentus” (Crop Prot, 2006).
# Key:
# [1] = system: Calopogonium mucunoides; experiment: Herbicidal activity against Calopogonium mucunoides in Abelmoschus esculentus plots assessed as weed cover at 1.32 kg a.i/ha after 4 weeks (reference value: 22.6 +/- 0.49 %); assay type: functional
# [2] = system: Calopogonium mucunoides; experiment: Herbicidal activity against Calopogonium mucunoides in Abelmoschus esculentus plots assessed as weed cover at 0.99 kg a.i/ha after 4 weeks (reference value: 22.6 +/- 0.49 %); assay type: functional
# [3] = system: Talinum fruticosum; experiment: Herbicidal activity against Talinum fruticosum in Abelmoschus esculentus plots assessed as weed cover at 0.99 kg a.i/ha after 2 weeks (reference value: 63.5 +/- 0.29 %); assay type: functional
# [4] = system: Synedrella nodiflora; experiment: Herbicidal activity against Synedrella nodiflora in Abelmoschus esculentus plots assessed as weed cover at 0.99 kg a.i/ha after 2 weeks (reference value: 63.5 +/- 0.29 %); assay type: functional
# [5] = system: Synedrella nodiflora; experiment: Herbicidal activity against Synedrella nodiflora in Abelmoschus esculentus plots assessed as major weed growth at 0.99 kg a.i/ha after 2 weeks; assay type: functional
# [6] = system: Calopogonium mucunoides; experiment: Herbicidal activity against Calopogonium mucunoides in Corchorus olitorius plots assessed as minor weed growth at 0.66 kg a.i/ha after 2 weeks; assay type: functional
# [7] = system: Calopogonium mucunoides; experiment: Herbicidal activity against Calopogonium mucunoides in Corchorus olitorius plots assessed as major weed growth at 0.33 kg a.i/ha after 2 weeks; assay type: functional
# [8] = system: Synedrella nodiflora; experiment: Herbicidal activity against Synedrella nodiflora in Corchorus olitorius plots assessed as minor weed growth at 1.32 kg a.i/ha after 2 weeks; assay type: functional
# [9] = system: Synedrella nodiflora; experiment: Herbicidal activity against Synedrella nodiflora in Corchorus olitorius plots assessed as major weed growth at 0.99 kg a.i/ha after 2 weeks; assay type: functional
# [10] = system: Euphorbia heterophylla; experiment: Herbicidal activity against Euphorbia heterophylla in Abelmoschus esculentus plots assessed as weed cover at 1.32 kg a.i/ha after 7 weeks (reference value: 14.7 +/- 0.46 %); assay type: functional
# [11] = system: Synedrella nodiflora; experiment: Herbicidal activity against Synedrella nodiflora in Abelmoschus esculentus plots assessed as weed cover at 0.99 kg a.i/ha after 7 weeks (reference value: 14.7 +/- 0.46 %); assay type: functional
# [12] = system: Synedrella nodiflora; experiment: Herbicidal activity against Synedrella nodiflora in Abelmoschus esculentus plots assessed as weed cover at 1.32 kg a.i/ha after 2 weeks (reference value: 63.5 +/- 0.29 %); assay type: functional
# [13] = system: Corchorus olitorius; experiment: Phytotoxicity in Corchorus olitorius assessed as crop seedling injury at 1.32 kg a.i/ha after 2 weeks relative to untreated control; assay type: organism-based; conditions: in vivo, 336 h
# [14] = system: Abelmoschus esculentus; experiment: Phytotoxicity in Abelmoschus esculentus assessed as seedling emergence at 0.66 kg a.i/ha treated to soil after 7 weeks (reference value: 95 +/- 0.05 %); assay type: organism-based; conditions: in vivo, other, 1176 h
# [15] = system: Abelmoschus esculentus; experiment: Phytotoxicity in Abelmoschus esculentus assessed as root length at 0.66 kg a.i/ha treated to soil after 7 weeks (reference value: 2.9 +/- 0.45 mm); assay type: organism-based; conditions: in vivo, other, 1176 h
# [16] = system: Corchorus olitorius; experiment: Phytotoxicity in Corchorus olitorius assessed as seed germination at 0.33 kg a.i/ha applied as solution after 7 weeks relative to untreated control; assay type: organism-based; conditions: in vivo, other, 1176 h
# [17] = system: Calopogonium mucunoides; experiment: Herbicidal activity against Calopogonium mucunoides in Corchorus olitorius plots assessed as weed cover at 0.66 kg a.i/ha after 7 weeks (reference value: 1.7 +/- 0.56 %); assay type: functional
# [18] = system: Abelmoschus esculentus; experiment: Phytotoxicity in Abelmoschus esculentus assessed as seedling injury at 0.33 kg a.i/ha applied as solution after 7 weeks relative to control; assay type: organism-based; conditions: in vivo, other, 1176 h
# [19] = system: Abelmoschus esculentus; experiment: Phytotoxicity in Abelmoschus esculentus assessed as root length at 1.32 kg a.i/ha applied as solution after 7 weeks (reference value: 23 +/- 0.34 mm); assay type: organism-based; conditions: in vivo, other, 1176 h
# [20] = system: Abelmoschus esculentus; experiment: Phytotoxicity in Abelmoschus esculentus assessed as root length at 0.33 kg a.i/ha applied as solution after 7 weeks (reference value: 23 +/- 0.34 mm); assay type: organism-based; conditions: in vivo, other, 1176 h
# [21] = system: Ageratum conyzoides; experiment: Herbicidal activity against Ageratum conyzoides in Corchorus olitorius plots assessed as weed cover at 1.32 kg a.i/ha after 2 weeks (reference value: 81.7 +/- 0.43 %); assay type: functional
# [22] = system: Talinum fruticosum; experiment: Herbicidal activity against Talinum fruticosum in Corchorus olitorius plots assessed as weed cover at 0.99 kg a.i/ha after 2 weeks (reference value: 81.7 +/- 0.43 %); assay type: functional
# [23] = system: Calopogonium mucunoides; experiment: Herbicidal activity against Calopogonium mucunoides in Corchorus olitorius plots assessed as weed cover at 0.66 kg a.i/ha after 2 weeks (reference value: 81.7 +/- 0.43 %); assay type: functional
# [24] = system: Rottboellia cochinchinensis; experiment: Herbicidal activity against Rottboellia cochinchinensis in Corchorus olitorius plots assessed as weed recovery at 0.33 kg a.i/ha after 2 weeks (reference value: 78.3 +/- 0.74 %); assay type: functional
# [25] = system: Chromolaena odorata; experiment: Herbicidal activity against Chromolaena odorata in Corchorus olitorius plots assessed as weed recovery at 0.33 kg a.i/ha after 2 weeks (reference value: 78.3 +/- 0.74 %); assay type: functional
# [26] = system: Abelmoschus esculentus; experiment: Phytotoxicity in Abelmoschus esculentus assessed as shoot length at 0.99 kg a.i/ha treated to soil after 7 weeks (reference value: 8.5 +/- 0.34 mm); assay type: organism-based; conditions: in vivo, other, 1176 h
# [27] = system: Euphorbia heterophylla; experiment: Herbicidal activity against Euphorbia heterophylla in Corchorus olitorius plots assessed as weed cover at 1.32 kg a.i/ha after 4 weeks (reference value: 20.1+/- 0.57 %); assay type: functional
# [28] = system: Corchorus olitorius; experiment: Phytotoxicity in Corchorus olitorius assessed as seedling emergence at 0.99 kg a.i/ha treated to soil after 7 weeks (reference value: 95 +/- 0.05 %); assay type: organism-based; conditions: in vivo, other, 1176 h
# [29] = system: Corchorus olitorius; experiment: Phytotoxicity in Corchorus olitorius assessed as seedling emergence at 0.33 kg a.i/ha treated to soil after 7 weeks (reference value: 95 +/- 0.05 %); assay type: organism-based; conditions: in vivo, other, 1176 h
# [30] = system: Calopogonium mucunoides; experiment: Herbicidal activity against Calopogonium mucunoides in Abelmoschus esculentus plots assessed as weed recovery at 0.99 kg a.i/ha after 2 weeks (reference value: 60.1 +/- 0.46 %); assay type: functional
# [31] = system: Calopogonium mucunoides; experiment: Herbicidal activity against Calopogonium mucunoides in Abelmoschus esculentus plots assessed as weed recovery at 0.33 kg a.i/ha after 2 weeks (reference value: 60.1 +/- 0.46 %); assay type: functional
# [32] = system: Ageratum conyzoides; experiment: Herbicidal activity against Ageratum conyzoides in Corchorus olitorius plots assessed as weed cover at 1.32 kg a.i/ha after 4 weeks (reference value: 20.1+/- 0.57 %); assay type: functional
# [33] = system: Talinum fruticosum; experiment: Herbicidal activity against Talinum fruticosum in Corchorus olitorius plots assessed as weed cover at 0.99 kg a.i/ha after 4 weeks (reference value: 20.1+/- 0.57 %); assay type: functional
# [34] = system: Euphorbia heterophylla; experiment: Herbicidal activity against Euphorbia heterophylla in Corchorus olitorius plots assessed as weed cover at 0.99 kg a.i/ha after 4 weeks (reference value: 20.1+/- 0.57 %); assay type: functional
# [35] = system: Synedrella nodiflora; experiment: Herbicidal activity against Synedrella nodiflora in Corchorus olitorius plots assessed as weed cover at 0.33 kg a.i/ha after 4 weeks (reference value: 20.1+/- 0.57 %); assay type: functional
# [36] = system: Ageratum conyzoides; experiment: Herbicidal activity against Ageratum conyzoides in Corchorus olitorius plots assessed as weed cover at 0.33 kg a.i/ha after 4 weeks (reference value: 20.1+/- 0.57 %); assay type: functional
# [37] = system: Calopogonium mucunoides; experiment: Herbicidal activity against Calopogonium mucunoides in Corchorus olitorius plots assessed as weed cover at 1.32 kg a.i/ha after 2 weeks (reference value: 81.7 +/- 0.43 %); assay type: functional
smiles,measurement,setting,value
CCC(CC)Nc1c([N+](=O)[O-])cc(C)c(C)c1[N+](=O)[O-] [PENDIMETHALIN],Activity,[1],36.2%
same,Activity,[2],39.2%
same,Activity,[3],47.9%
same,Activity,[4],47.9%
same,Activity,[5],31 /m2
same,Activity,[6],1 /m2
same,Activity,[7],31 /m2
same,Activity,[8],1 /m2
same,Activity,[9],31 /m2
same,Activity,[10],82.4%
same,Activity,[11],83.9%
same,Activity,[12],45%
same,Activity,[13],76.7%
same,Activity,[14],82%
same,Activity,[15],1.4 mm
same,Activity,[16],88.7%
same,Activity,[17],100%
same,Activity,[18],29.9%
same,Activity,[19],11.5 mm
same,Activity,[20],11.7 mm
same,Activity,[21],41.7%
same,Activity,[22],51.7%
same,Activity,[23],51.7%
same,Activity,[24],31.7%
same,Activity,[25],31.7%
same,Activity,[26],5.6 mm
same,Activity,[27],33.3%
same,Activity,[28],86.7%
same,Activity,[29],85%
same,Activity,[30],36.2%
same,Activity,[31],39.2%
same,Activity,[32],33.3%
same,Activity,[33],48.3%
same,Activity,[34],48.3%
same,Activity,[35],73.3%
same,Activity,[36],73.3%
same,Activity,[37],41.7%
